Assay results as given in US20190031618A1, “BENZIMIDAZOLE DERIVATIVES USEFUL AS CB-1 INVERSE AGONISTS” (Janssen Pharmaceutica NV, priority 2015, published 2019).
Like-named read-outs stand apart in the source and are kept apart here.

Legend:
[1] = target: Human CB2R (Cannabinoid receptor 2) (Homo sapiens, UniProt P34972); assay: CB-2 in vitro cAMP (HTRF) assay; type: cell-based; conditions: HEK cells, cAMP HTRF, 250 nM forskolin; mean where tested more than once; read-out: CB2 HEK_cAMP EC50
In short: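 HEK-293 cells stably expressing receptor, plated overnight at 4E5 cells/mL, tested with 1/3 serial dilutions of compound in HBSS/HEPES/BSA buffer with 0.5 mM IBMX and forskolin (diluted to 1.5 μM in buffer). cAMP measured by competitive HTRF immunoassay (d2-cAMP, cryptate anti-cAMP), signal inversely proportional to cAMP.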

[2] = target: Human CB1R (Cannabinoid receptor 1) (Homo sapiens, UniProt P21554); assay: CB-1 in vitro cAMP (HTRF) assay; type: cell-based; conditions: cAMP HTRF, 250 nM forskolin, mean where tested more than once
In short: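 Intracellular cAMP from HTRF ratio (d2-cAMP vs Eu-cryptate anti-cAMP), converted to nM via per-plate standards, in stable human CB1R HEK-293 cells.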

[3] = HEK cells, read-out: CB1 HEK_cAMP EC50

Sequence of Human CB1R (Cannabinoid receptor 1) (P21554 whole entry): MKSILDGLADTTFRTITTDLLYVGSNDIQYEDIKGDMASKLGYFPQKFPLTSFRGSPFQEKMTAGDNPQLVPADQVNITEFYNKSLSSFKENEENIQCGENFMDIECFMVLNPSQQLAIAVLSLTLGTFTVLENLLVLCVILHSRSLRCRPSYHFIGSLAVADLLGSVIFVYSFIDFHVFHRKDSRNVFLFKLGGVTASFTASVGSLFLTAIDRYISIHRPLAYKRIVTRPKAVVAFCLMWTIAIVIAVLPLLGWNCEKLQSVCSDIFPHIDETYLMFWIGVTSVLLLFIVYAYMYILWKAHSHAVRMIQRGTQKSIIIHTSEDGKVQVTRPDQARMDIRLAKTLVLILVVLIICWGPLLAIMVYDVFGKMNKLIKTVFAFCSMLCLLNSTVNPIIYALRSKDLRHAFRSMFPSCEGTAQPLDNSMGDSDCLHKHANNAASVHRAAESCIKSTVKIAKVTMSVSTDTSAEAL
Sequence of Human CB2R (Cannabinoid receptor 2) (P34972 whole entry): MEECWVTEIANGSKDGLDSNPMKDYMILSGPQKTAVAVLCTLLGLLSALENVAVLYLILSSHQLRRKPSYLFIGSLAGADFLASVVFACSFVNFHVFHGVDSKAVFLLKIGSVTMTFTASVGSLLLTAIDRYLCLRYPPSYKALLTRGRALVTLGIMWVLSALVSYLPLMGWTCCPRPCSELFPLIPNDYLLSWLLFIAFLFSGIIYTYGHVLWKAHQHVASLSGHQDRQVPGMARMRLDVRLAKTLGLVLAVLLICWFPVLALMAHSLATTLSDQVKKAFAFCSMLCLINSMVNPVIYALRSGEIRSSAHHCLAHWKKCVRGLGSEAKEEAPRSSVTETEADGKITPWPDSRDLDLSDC

| EC50 [1] | EC50 [2, 3] | SMILES | EC50 ([2]; CB1 HEK_cAMP EC50, HEK cells) |
| --- | --- | --- | --- |
| > 10 µM | 0.598 µM | CCOC(=O)N1CCC(n2c(Cl)nc3ccc(C(c4ccc(Cl)cc4)c4nccs4)cc32)CC1 (centres unmarked) [Example 422] | – |
| > 10 µM | 0.0478 µM | CCc1nc2ccc(C(c3ccc(Cl)cc3)c3nccs3)cc2n1CCc1cccc(Cl)c1 (centres unmarked) [Example 409] | – |
| > 10 µM | 0.0227 µM | CCc1nc2ccc(C(c3ccc(Cl)cc3)c3nccs3)cc2n1-c1cccc(Cl)c1 (centres unmarked) [Example 434] | – |
| 3 µM | 0.15 µM | O=C(O)c1cccc(N[C@H]2CC[C@H](n3c(C4CC4)nc4ccc(C(c5ccc(Cl)cc5)c5ccc(Cl)cc5)cc43)CC2)c1 [Example 31] | – |
| 9 µM | 0.906 µM | Clc1ccc(C(c2ccc(Cl)cc2)c2ccc3ncn(C4Cc5ccccc5C4)c3c2)cc1 [Example 298] | – |
| 4.7 µM | 0.0152 µM | CCOC(=O)COc1cccc(Cn2c(C3CC3)nc3ccc(C(c4ccc(Cl)cc4)c4ccc(Cl)cc4)cc32)c1 [Example 144] | – |
| > 10 µM | 0.021 µM | O=C(NCCCO)c1cccc(S(=O)(=O)N2CCC(n3c(C4CC4)nc4ccc(C(c5ccc(Cl)cc5)c5ccc(Cl)cc5)cc43)CC2)c1 [Example 191] | – |
| 6.5 µM | 0.173 µM | O=C(c1cn[nH]n1)N1CCC(n2c(C3CC3)nc3ccc(C(c4ccc(Cl)cc4)c4ccc(Cl)cc4)cc32)CC1 [Example 199] | – |
| > 10 µM | 0.231 µM | CCOC(=O)N1CCC(n2c(CC(C)C)nc3ccc(C(c4ccc(Cl)cc4)c4nccs4)cc32)CC1 (centres unmarked) [Example 420] | – |
| 1.62 µM | 0.0402 µM | O=C(O)c1ccc(N[C@H]2CC[C@H](n3c(C4CC4)nc4ccc(C(c5ccc(Cl)cc5)c5ccc(Cl)cc5)cc43)CC2)cc1 [Example 30] | – |
| > 10 µM | > 10 µM | COc1cc(S(=O)(=O)N2CCC(n3c(C4CC4)nc4ccc(C(CO)(c5ccc(Cl)cc5)c5ccc(Cl)cc5)cc43)CC2)ccc1C(=O)O [Example 193] | – |
| > 9.2 µM | > 10 µM | CCc1csc(C(c2ccc(Cl)cc2)c2ccc3nc(-c4ccc(Cl)cc4)n(Cc4ccc(Cl)cc4)c3c2)n1 (centres unmarked) [Example 456] | – |
| > 10 µM | 0.0015 µM | NC(=O)c1cccc(S(=O)(=O)N2CCC(n3c(C4CC4)nc4ccc(C(c5ccc(Cl)cc5)c5ccc(Cl)cc5)cc43)CC2)c1 [Example 260] | – |
| 7.82 µM | 0.0167 µM | O=C(O)c1cc(S(=O)(=O)N2CCC(n3c(C4CC4)nc4ccc(C(c5ccc(Cl)cc5)c5ccc(Cl)cc5)cc43)CC2)ccc1F [Example 226] | – |
| > 10 µM | 0.0046 µM | O=S(=O)(N1CCC(Cn2c(C3CC3)nc3ccc(C(O)(c4ccc(Cl)cc4)c4ccc(Cl)cc4)cc32)CC1)C(F)(F)F [Example 294] | – |
| 0.798 µM | 0.017 µM | O=S(=O)(NCCCn1c(C2CC2)nc2ccc(C(c3ccc(Cl)cc3)c3ccc(Cl)cc3)cc21)c1cccc(Br)c1 [Example 9] | – |
| 2.16 µM | 0.0098 µM | O=C(O)c1cnc(N2CCC(Cn3c(C4CC4)nc4ccc(C(c5ccc(Cl)cc5)c5ccc(Cl)cc5)cc43)CC2)nc1 [Example 4] | – |
| 9.6 µM | 0.0336 µM | NC(=O)CCC(=O)N1CCC(n2c(C3CC3)nc3ccc(C(c4ccc(Cl)cc4)c4ccc(Cl)cc4)cc32)CC1 [Example 273] | – |
| > 10 µM | 0.0057 µM | O=S(=O)(c1cccc(C(F)(F)F)c1)N1CCC(n2c(C3CC3)nc3ccc(C(c4ccc(Cl)cc4)c4ccc(Cl)cc4)cc32)CC1 [Example 284] | – |
| > 21 µM | 0.151 µM | O=C(O)CCc1nc2ccc(C(c3ccc(Cl)cc3)c3ccc(Cl)cc3)cc2n1C1CCN(S(=O)(=O)C(F)(F)F)CC1 [Example 78] | – |
| > 10 µM | 0.112 µM | CCOC(=O)N1CCC(n2c(C3CC3)nc3ccc(C(c4ccc(Cl)cc4)c4nccs4)cc32)CC1 (centres unmarked) [Example 421] | – |
| > 10 µM | 3.92 µM | O=C(O)COCC(c1ccc(Cl)cc1)(c1ccc(Cl)cc1)c1ccc2nc(C3CC3)n(C3CCN(S(=O)(=O)C(F)(F)F)CC3)c2c1 [Example 143] | – |
| 3.35 µM | 4.49 µM | OC(c1ccc(Cl)cc1)(c1ccc2ncn(CCc3cccc(Cl)c3)c2c1)c1nccs1 (centres unmarked) [Example 405] | – |
| > 10 µM | 0.0054 µM | O=S(=O)(c1ccc(O)cc1)N1CCC(n2c(C3CC3)nc3ccc(C(c4ccc(Cl)cc4)c4ccc(Cl)cc4)cc32)CC1 [Example 257] | – |

| EC50 [1] | EC50 [2, 3] | SMILES | EC50 ([2]; CB1 HEK_cAMP EC50, HEK cells) |
| --- | --- | --- | --- |
| > 10 µM | 2.04 µM | NC(=O)c1ccc(S(=O)(=O)N2CCC(n3c(C4CC4)nc4ccc(C(CO)(c5ccc(Cl)cc5)c5ccc(Cl)cc5)cc43)CC2)cc1 [Example 227] | – |
| > 6.7 µM | 0.813 µM | CCc1csc(C(c2ccc(Cl)cc2)c2ccc3nc(C)n(Cc4ccc(Cl)cc4)c3c2)n1 (centres unmarked) [Example 452] | – |
| 6.24 µM | 0.0131 µM | NC(=O)c1ccc(S(=O)(=O)N2CCC(n3c(C4CC4)nc4ccc(C(c5ccc(Cl)cc5)c5ccc(Cl)cc5)cc43)CC2)cc1Cl [Example 252] | – |
| 4.49 µM | 0.0062 µM | NC(=O)c1cccc(N2CCC(n3c(C4CC4)nc4ccc(C(c5ccc(Cl)cc5)c5ccc(Cl)cc5)cc43)CC2)c1 [Example 162] | – |
| 0.99 µM | 0.0638 µM | O=C(c1nc[nH]n1)N1CCC(n2c(C3CC3)nc3ccc(C(c4ccc(Cl)cc4)c4ccc(Cl)cc4)cc32)CC1 [Example 201] | – |
| 8.6 µM | 0.0172 µM | CCc1nc2ccc(C(c3ccc(Cl)cc3)c3ccc(Cl)cc3)cc2n1CCc1cccc(Cl)c1 [Example 311] | – |
| > 10 µM | 0.0675 µM | COCC(c1ccc(Cl)cc1)(c1ccc(Cl)cc1)c1ccc2nc(C3CC3)n(C3CCN(S(=O)(=O)c4ccc(C(=O)O)c(Cl)c4)CC3)c2c1 [Example 178] | – |
| > 10 µM | 0.0643 µM | Clc1ccc(C(c2ccc3nc(C4CC4)n(-c4cccc(Cl)c4)c3c2)c2nccs2)cc1 (centres unmarked) [Example 432] | – |
| > 10 µM | 0.615 µM | CCc1nc2ccc(C(c3ccc(Cl)cc3)c3ccc(Cl)cc3)cc2n1C1Cc2ccccc2C1 [Example 297] | – |
| > 10 µM | 0.192 µM | CC(C)c1nc2ccc(C(c3ccc(Cl)cc3)c3nccs3)cc2n1-c1cccc(Cl)c1 (centres unmarked) [Example 402] | – |
| 4.54 µM | 0.253 µM | O=C(O)c1ccc(S(=O)(=O)N[C@H]2CC[C@H](n3c(C4CC4)nc4ccc(C(c5ccc(Cl)cc5)c5ccc(Cl)cc5)cc43)CC2)cc1 [Example 21] | – |
| > 10 µM | 0.163 µM | CCCc1nc2ccc(C(c3ccc(Cl)cc3)c3nccs3)cc2n1C1CCN(S(=O)(=O)C(F)(F)F)CC1 (centres unmarked) [Example 399] | – |
| > 10 µM | 0.308 µM | CCCc1nc2ccc(C(c3ccc(Cl)cc3)c3nccs3)cc2n1CCc1cccc(Cl)c1 (centres unmarked) [Example 410] | – |
| > 10 µM | 0.551 µM | CCOC(=O)c1nc2ccc(C(c3ccc(Cl)cc3)c3nccs3)cc2n1C1CCN(S(=O)(=O)C(F)(F)F)CC1 (centres unmarked) [Example 387] | – |
| > 10 µM | 0.0912 µM | Cc1ccc(S(=O)(=O)N2CCC(n3c(C4CC4)nc4ccc(C(c5ccc(Cl)cc5)c5ccc(Cl)cc5)cc43)CC2)cc1C(N)=O [Example 168] | – |
| > 10 µM | 0.167 µM | Oc1ccc(-n2c(C3CC3)nc3ccc(C(c4ccc(Cl)cc4)c4ccc(Cl)cc4)cc32)cc1 [Example 171] | – |
| 2.11 µM | 0.008 µM | NC(=O)c1ccc(N2CCC(n3c(C4CC4)nc4ccc(C(c5ccc(Cl)cc5)c5ccc(Cl)cc5)cc43)CC2)cc1 [Example 161] | – |
| 2.16 µM | 0.0395 µM | O=C(O)c1ccc(N[C@H]2CC[C@@H](n3c(C4CC4)nc4ccc(C(c5ccc(Cl)cc5)c5ccc(Cl)cc5)cc43)CC2)cc1 [Example 32] | – |
| 10.2 µM | 0.589 µM | COc1ccc(S(=O)(=O)N2CCC(n3c(C4CC4)nc4ccc(C(c5ccc(Cl)cc5)c5ccc(Cl)cc5)cc43)CC2)cc1C(=O)O [Example 211] | – |
| > 10 µM | 0.0225 µM | O=S(=O)(N1CCC(n2c(C3CCC3)nc3ccc(C(O)(c4ccc(Cl)cc4)c4ccc(Cl)cc4)cc32)CC1)C(F)(F)F [Example 319] | – |
| 4.66 µM | 0.0064 µM | Cc1cc(S(=O)(=O)N2CCC(n3c(C4CC4)nc4ccc(C(c5ccc(Cl)cc5)c5ccc(Cl)cc5)cc43)CC2)ccc1C(=O)O [Example 207] | – |
| > 10 µM | 8.31 µM | O=C(O)c1ccc(S(=O)(=O)N2CCC(n3c(C4CC4)nc4ccc(C(CO)(c5ccc(Cl)cc5)c5ccc(Cl)cc5)cc43)CC2)cc1Cl [Example 213] | – |
| 1.15 µM | 0.0357 µM | O=C(NCc1ccccc1)N1CCC(n2c(C3CC3)nc3ccc(C(c4ccc(Cl)cc4)c4ccc(Cl)cc4)cc32)CC1 [Example 75] | – |

| SMILES | EC50 [1] | EC50 [2, 3] | EC50 ([2]; CB1 HEK_cAMP EC50, HEK cells) |
| --- | --- | --- | --- |
| NC(=O)c1ccc(CN2CCC(n3c(C4CC4)nc4ccc(C(c5ccc(Cl)cc5)c5ccc(Cl)cc5)cc43)CC2)cn1 [Example 105] | 8 µM | 0.0051 µM | – |
| O=C(O)c1csc(CN2CCC(n3c(C4CC4)nc4ccc(C(c5ccc(Cl)cc5)c5ccc(Cl)cc5)cc43)CC2)c1 [Example 130] | 8.1 µM | 0.0155 µM | – |
| Clc1ccc(C(c2ccc(Cl)cc2)c2ccc3nc(C4CC4)n(CC4CCOCC4)c3c2)cc1 [Example 120] | 5.43 µM | – | 0.0249 µM |
| CCC(c1cccc(C(=O)O)c1)N1CCC(n2c(C3CC3)nc3ccc(C(c4ccc(Cl)cc4)c4ccc(Cl)cc4)cc32)CC1 (centres unmarked) [Example 49] | 4.4 µM | 0.0085 µM | – |
| CC(c1cccc(O)c1)N1CCC(n2c(C3CC3)nc3ccc(C(c4ccc(Cl)cc4)c4ccc(Cl)cc4)cc32)CC1 (centres unmarked) [Example 56] | > 10 µM | 0.0193 µM | – |
